Assays:
A549/ATCC = experiment: NCI 60 cell panel SRB screen; format: cell-based; settings: Homo sapiens
SF-268 = experiment: NCI 60 cell panel SRB screen; format: cell-based; settings: Homo sapiens
SF-295 = experiment: NCI 60 cell panel SRB screen; format: cell-based; settings: Homo sapiens
UACC-62 = experiment: NCI 60 cell panel SRB screen; format: cell-based
SK-MEL-5 = experiment: NCI 60 cell panel SRB screen; format: cell-based; settings: Homo sapiens
SR = experiment: NCI 60 cell panel SRB screen; format: cell-based; settings: Homo sapiens
UACC-257 = experiment: NCI 60 cell panel SRB screen; format: cell-based; settings: Homo sapiens
CCRF-CEM = experiment: NCI 60 cell panel SRB screen; format: cell-based, human
786-0 = experiment: NCI 60 cell panel SRB screen; format: cell-based; settings: Homo sapiens
K-562 = experiment: NCI 60 cell panel SRB screen; format: cell-based; settings: Homo sapiens, K562
HOP-62 = experiment: NCI 60 cell panel SRB screen; format: cell-based; settings: Homo sapiens
OVCAR-3 = experiment: NCI 60 cell panel SRB screen; format: cell-based; settings: Homo sapiens
SW-620 = experiment: NCI 60 cell panel SRB screen; format: cell-based; settings: Homo sapiens
HCT-116 = experiment: NCI 60 cell panel SRB screen; format: cell-based; settings: Homo sapiens
DU-145 = experiment: NCI 60 cell panel SRB screen; format: cell-based; settings: Homo sapiens
RPMI-8226 = experiment: NCI 60 cell panel SRB screen; format: cell-based; settings: Homo sapiens
OVCAR-8 = experiment: NCI 60 cell panel SRB screen; format: cell-based; settings: Homo sapiens
MALME-3M = experiment: NCI 60 cell panel SRB screen; format: cell-based; settings: Homo sapiens
VEGFR-2 tyrosine kinase = target: T1, VEGFR-2 tyrosine kinase (Homo sapiens, UniProt P35968); experiment: In vitro VEGFR-2 tyrosine kinase assay (BPS Bioscience); format: biochemical; settings: read-out: VEGFR-2 % inhibition; 10 μM concentration
T1 construct: purchased BPS Bioscience 40301
T1 sequence (P35968 20-1356): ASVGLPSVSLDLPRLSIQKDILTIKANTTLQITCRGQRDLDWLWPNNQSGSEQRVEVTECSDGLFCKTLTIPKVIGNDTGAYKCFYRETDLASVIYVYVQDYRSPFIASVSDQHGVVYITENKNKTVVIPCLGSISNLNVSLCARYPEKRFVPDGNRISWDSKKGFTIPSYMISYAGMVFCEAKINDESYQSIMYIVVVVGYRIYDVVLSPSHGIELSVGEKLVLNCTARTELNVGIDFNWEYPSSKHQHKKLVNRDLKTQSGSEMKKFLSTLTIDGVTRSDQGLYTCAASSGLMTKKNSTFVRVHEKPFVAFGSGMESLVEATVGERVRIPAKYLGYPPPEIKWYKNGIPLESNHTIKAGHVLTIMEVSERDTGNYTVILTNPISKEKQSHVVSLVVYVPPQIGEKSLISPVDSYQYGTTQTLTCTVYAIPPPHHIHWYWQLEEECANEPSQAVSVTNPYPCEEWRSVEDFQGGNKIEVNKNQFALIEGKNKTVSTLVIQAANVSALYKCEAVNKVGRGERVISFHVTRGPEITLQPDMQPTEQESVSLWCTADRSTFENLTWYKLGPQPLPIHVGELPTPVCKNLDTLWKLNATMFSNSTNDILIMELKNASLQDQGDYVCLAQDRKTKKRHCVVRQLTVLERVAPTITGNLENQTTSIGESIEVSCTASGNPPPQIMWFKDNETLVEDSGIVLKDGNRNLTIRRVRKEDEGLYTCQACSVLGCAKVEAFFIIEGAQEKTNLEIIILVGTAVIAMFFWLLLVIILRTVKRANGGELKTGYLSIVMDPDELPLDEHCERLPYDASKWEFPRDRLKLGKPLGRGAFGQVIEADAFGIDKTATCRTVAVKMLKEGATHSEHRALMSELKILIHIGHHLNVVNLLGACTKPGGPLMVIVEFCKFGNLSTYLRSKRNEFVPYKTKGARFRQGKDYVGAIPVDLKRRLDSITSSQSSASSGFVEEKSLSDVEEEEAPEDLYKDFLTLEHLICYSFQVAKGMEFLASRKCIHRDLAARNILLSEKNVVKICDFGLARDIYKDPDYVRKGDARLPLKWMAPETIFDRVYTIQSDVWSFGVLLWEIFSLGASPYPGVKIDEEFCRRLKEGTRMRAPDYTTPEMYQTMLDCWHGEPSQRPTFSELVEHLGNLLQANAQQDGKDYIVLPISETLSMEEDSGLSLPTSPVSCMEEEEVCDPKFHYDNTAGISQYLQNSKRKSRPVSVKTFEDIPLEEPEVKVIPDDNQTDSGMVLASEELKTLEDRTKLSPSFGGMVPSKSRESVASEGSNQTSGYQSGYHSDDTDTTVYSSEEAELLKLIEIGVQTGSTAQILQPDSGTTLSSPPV
Procedure: The VEGFR tyrosine kinase assays were performed at BPS Bioscience (www.bpsbioscience.com). All the synthesised compounds representing the six series were evaluated for their ability to inhibit VEGFR-2 tyrosine kinase at single dose of 10 µM.
The VEGFR tyrosine kinase activity at single dose concentration of 10 μM was carried out by BPS Bioscience (www.bpsbioscience.com). VEGFR (BPS#40301) served as the enzyme source and Poly (Glu, Tyr) sodium salt, (4:1, Glu:Tyr) (Sigma#P7244) served as the standardized substrate & Kinase-Glo Plus Luminescence kinase assay kit (Promega#V3772). The IC50 determination was carried out where quality control testing is routinely performed on each of the targets to insure compliance to acceptable standards. ^33P-ATP was purchased from Perkin Elmer and ADP-Glo^TM was purchased from Promega. All other materials were of standard laboratory grade.
The VEGFR tyrosine kinase activity was performed using Kinase-Glo Plus luminescence kinase assay kit (Promega). It measures kinase activity by quantitating the amount of ATP remaining in solution following a kinase reaction. The luminescent signal from the assay is correlated with the amount of ATP present and is inversely correlated with the amount of kinase activity. The compounds were diluted to 100 μM in 10% DMSO and […] of the dilution was added to a […] reaction so that the final concentration of DMSO is 1% in all of reactions. All of the enzymatic reactions were conducted at 30 °C for 40 min. The 50 μl reaction mixture contains […], pH 7.4, […], 0.1 mg/ml BSA, 0.2 mg/ml Poly (Glu, Tyr) substrate, 10 μM ATP and VEGFR. After the enzymatic reaction, […] of Kinase-GloPlus Luminescence kinase assay solution (Promega) was added to each reaction and incubate the plate for 5 min at room temperature. Luminescence signal was measured using a BioTek Synergy 2 microplate reader. The protein kinase assays used to determine IC50 value were performed using ADP-GloTM assay kit from Promega which measures the generation of ADP by the protein kinase. Generation of ADP by the protein kinase reaction leads to an increase in luminescence signal in the presence of ADP-GloTM assay kit. The assay was started by incubating the reaction mixture in a 96-well plate at 30 °C for 30 min. After the 30 min incubation period, the assay was terminated by the addition of […] of ADP-GloTM Reagent (Promega). The 96 well plate was shaken and then incubated for 40 min at ambient temperature. […] of Kinase detection reagent was added, the 96-well reaction plate was then read using the ADP-Glo Luminescences Protocol on a GloMax plate reader (Promega: Catalog #E7031). Blank control was set up that included all the assay components except the addition of appropriate substrate (replace with equal volume of kinase assay buffer). The corrected activity for each protein kinase target was determined by removing the blank control value.
VEGFR activity assays were performed in duplicate at each concentration. The luminescence data were analyzed using the computer software, Graphpad Prism. The difference between luminescence intensities in the absence of VEGFR (Lut) and in the presence of VEGFR (Luc) was defined as 100% activity (Lut - Luc). […] IC50 determination for inhibitor against VEGFR was estimated by generating a graph of log inhibitor vs normalized response with variable using the Prism software.

M14 = experiment: NCI 60 cell panel SRB screen; format: cell-based; settings: Homo sapiens
[1] = single dose 10 μM, read-out: percent cell growth promotion

Structure (SMILES): O=C(Nc1ccc(Cl)cc1)Nc1ccc(Nc2nncc3ccccc23)cc1 [Compound 6b, 1–(4-Chlorophenyl)-3–(4-(phthalazin-1-ylamino)phenyl)urea]
- GI50 (A549/ATCC; 5 log dose): 3.03 µM
- IC (TGI) (A549/ATCC; 5 log dose): 19.3 µM
- LC50 (concentration killing 50% of cells) (A549/ATCC; 5 log dose, 48 h): > 100 µM
- activity at 10 µM (A549/ATCC; [1]): 20.1%
- GI50 (SF-268; SF-268, 5 log dose): 3.19 µM
- IC (TGI) (SF-268; SF-268, 5 log dose): 28.1 µM
- CC50 (SF-268; SF-268, 5 log dose, 48 h, read-out: LC50 (the source's name)): > 100 µM
- activity at 10 µM (SF-268; SF-268, single dose 10 μM, read-out: percent cell growth promotion): 42.4%
- GI50 (SF-295; SF-295, 5 log dose): 2.84 µM
- IC (TGI) (SF-295; SF-295, 5 log dose): 11 µM
- CC50 (SF-295; SF-295, 5 log dose, 48 h, read-out: LC50 (the source's name)): 45.8 µM
- activity at 10 µM (SF-295; SF-295, single dose 10 μM, read-out: percent cell growth promotion): 17.8%
- GI50 (UACC-62; Homo sapiens, UACC-62): 0.95 µM
- activity at 10 µM (UACC-62; Homo sapiens, UACC-62, read-out: percent cell growth promotion): 13.4%
- CC50 (UACC-62; Homo sapiens, UACC-62, 5 log dose, 48 h, read-out: LC50 (the source's name)): 38.1 µM
- TGI (UACC-62; UACC-62, 5 log dose): 7.97 µM
- GI50 (SK-MEL-5; SK-MEL-5): 2.31 µM
- IC (TGI) (SK-MEL-5; SK-MEL-5, read-out: TGI): 6.82 µM
- activity at 10 µM (SK-MEL-5; SK-MEL-5, read-out: percent cell growth promotion): 7.12%
- CC50 (SK-MEL-5; SK-MEL-5, 5 log dose, 48 h, read-out: LC50 (the source's name)): 24.7 µM
- GI50 (SR; 5 log dose): 3.89 µM
- IC (TGI) (SR; 5 log dose): 23.3 µM
- CC50 (SR; 5 log dose, 48 h, read-out: LC50 (the source's name)): > 100 µM
- activity at 10 µM (SR; [1]): 17.5%
- GI50 (UACC-257; UACC-257): 3.41 µM
- IC (TGI) (UACC-257; UACC-257, read-out: TGI): 10.8 µM
- activity at 10 µM (UACC-257; UACC-257, read-out: percent cell growth promotion): 15.3%
- CC50 (UACC-257; UACC-257, 5 log dose, 48 h, read-out: LC50 (the source's name)): 33.5 µM
- TGI (CCRF-CEM; 5 log dose): 17.0 µM
- GI50 (CCRF-CEM; Homo sapiens, 5 log dose): 2.57 µM
- CC50 (CCRF-CEM; Homo sapiens, 5 log dose, 48 h, read-out: LC50 (the source's name)): > 100 µM
- activity at 10 µM (CCRF-CEM; Homo sapiens, single dose 10 μM, read-out: percent cell growth promotion): 13.1%
- GI50 (786-0; 786-0, 5 log dose): 3.09 µM
- IC (TGI) (786-0; 786-0, 5 log dose): 25.2 µM
- CC50 (786-0; 786-0, 5 log dose, 48 h, read-out: LC50 (the source's name)): > 100 µM
- activity at 10 µM (786-0; 786-0, single dose 10 μM, read-out: percent cell growth promotion): 50.4%
- GI50 (K-562; K-562, 5 log dose): 1.68 µM
- IC (TGI) (K-562; K-562, 5 log dose): 26.4 µM
- CC50 (K-562; K-562, 5 log dose, 48 h, read-out: LC50 (the source's name)): > 100 µM
- activity at 10 µM (K-562; K-562, single dose 10 μM, read-out: percent cell growth promotion): 9.49%
- GI50 (HOP-62; HOP-62, 5 log dose): 3 µM
- IC (TGI) (HOP-62; HOP-62, 5 log dose): 14.9 µM
- CC50 (HOP-62; HOP-62, 5 log dose, 48 h, read-out: LC50 (the source's name)): 74.9 µM
- activity at 10 µM (HOP-62; HOP-62, single dose 10 μM, read-out: percent cell growth promotion): 20.6%
- GI50 (OVCAR-3; OVCAR-3, 5 log dose): 2.57 µM
- IC (TGI) (OVCAR-3; OVCAR-3, 5 log dose): 10.3 µM
- CC50 (OVCAR-3; OVCAR-3, 5 log dose, 48 h, read-out: LC50 (the source's name)): 70 µM
- activity at 10 µM (OVCAR-3; OVCAR-3, single dose 10 μM, read-out: percent cell growth promotion): 17.6%
- GI50 (SW-620; SW-620, 5 log dose): 3.16 µM
- IC (TGI) (SW-620; SW-620, 5 log dose): 18.6 µM
- CC50 (SW-620; SW-620, 5 log dose, 48 h, read-out: LC50 (the source's name)): 81.8 µM
- activity at 10 µM (SW-620; SW-620, single dose 10 μM, read-out: percent cell growth promotion): 27%
- GI50 (HCT-116; HCT-116, 5 log dose): 2.46 µM
- IC (TGI) (HCT-116; HCT-116, 5 log dose): 12 µM
- LC50 (lethal concentration 50%) (HCT-116; HCT-116, 5 log dose, 48 h): 37.4 µM
- activity at 10 µM (HCT-116; HCT-116, single dose 10 μM, read-out: percent cell growth promotion): 15.2%
- GI50 (DU-145; DU-145, 5 log dose): 3.17 µM
- IC (TGI) (DU-145; DU-145, 5 log dose): 26.9 µM
- CC50 (DU-145; DU-145, 5 log dose, 48 h, read-out: LC50 (the source's name)): > 100 µM
- activity at 10 µM (DU-145; DU-145, single dose 10 μM, read-out: percent cell growth promotion): 33.7%
- GI50 (RPMI-8226; RPMI-8226, 5 log dose): 2.5 µM
- IC (TGI) (RPMI-8226; RPMI-8226, 5 log dose): 8.75 µM
- CC50 (RPMI-8226; RPMI-8226, 5 log dose, 48 h, read-out: LC50 (the source's name)): > 100 µM
- activity at 10 µM (RPMI-8226; RPMI-8226, single dose 10 μM, read-out: percent cell growth promotion): 8.62%
- GI50 (OVCAR-8; OVCAR-8, 5 log dose): 3.12 µM
- IC (TGI) (OVCAR-8; OVCAR-8, 5 log dose): 12.4 µM
- CC50 (OVCAR-8; OVCAR-8, 5 log dose, 48 h, read-out: LC50 (the source's name)): > 100 µM
- activity at 10 µM (OVCAR-8; OVCAR-8, single dose 10 μM, read-out: percent cell growth promotion): 18.2%
- GI50 (MALME-3M; Malme-3M): 3.94 µM
- IC (TGI) (MALME-3M; Malme-3M, read-out: TGI): 16.5 µM
- activity at 10 µM (MALME-3M; Malme-3M, read-out: percent cell growth promotion): 38.5%
- CC50 (MALME-3M; MALME-3M, 5 log dose, 48 h, read-out: LC50 (the source's name)): 50 µM
- inhibition at 10 µM (VEGFR-2 tyrosine kinase): 20%
- GI50 (M14; M14): 1.52 µM
- IC (TGI) (M14; M14, read-out: TGI): 11.5 µM
- activity at 10 µM (M14; M14, read-out: percent cell growth promotion): 19.3%
- CC50 (M14; M14, 5 log dose, 48 h, read-out: LC50 (the source's name)): 40.7 µM
